From patent US8415469B2, “Compounds and methods for kinase modulation, and indications therefor” (Plexxikon Inc., priority 2005, dated 2013)

What was measured:
Type in all cases: biochemical
B-Raf = biological target: T1, B-Raf (Homo sapiens, UniProt P15056); experiment: AlphaScreen kinase assay, B-Raf; conditions: read-out: IC50, activity toward kinase B-Raf
T1 construct: purchased Upstate Biotechnology

B-Raf V600E = biological target: T2, B-Raf V600E (Homo sapiens, UniProt P15056, V600E); experiment: AlphaScreen kinase assay, B-Raf V600E; conditions: read-out: IC50, activity toward kinase B-Raf V600E
T2 construct: P4254. pFastBacBD-CDC37 BRAF D437-K722-X, V600E; His6 with pFastBac HT leader (TEV site) (N); made in house; host or cells: Sf9 (baculovirus; chaperone CDC37 co-expressed)

Jnk1 = biological target: T3, Jnk1 (Homo sapiens, UniProt P45983); experiment: AlphaScreen kinase assay, Jnk1; conditions: read-out: IC50, activity toward kinase Jnk1
T3 construct: purchased Upstate Biotechnology

Src = biological target: T4, Src (Homo sapiens, UniProt P12931); experiment: AlphaScreen kinase assay, Src; conditions: read-out: IC50, activity toward kinase Src
T4 construct: P1144. pET-N6 BI-PTP SRC V86-L536-X; made in house

MAP4K4 = MAP4K4 (Homo sapiens, UniProt O95819); experiment: AlphaScreen kinase assay, MAP4K4; conditions: read-out: IC50, activity toward kinase MAP4K4
Kit = biological target: T5, Kit (Homo sapiens, UniProt P10721); experiment: AlphaScreen kinase assay, Kit; conditions: read-out: IC50, activity toward kinase Kit
T5 construct: P1332.N6 BI PTP KIT M552-K948-X COD; His6 (N); made in house; host or cells: E. coli (PTP1B co-expressed)
Excerpt: (§1) AlphaScreen assay was used to screen additional kinases. The assay is similarly dependent on the phosphorylation of a peptide substrate. In this assay, an antibody that recognizes phosphorylated substrate is bound to an acceptor bead. The peptide substrate is attached to biotin, which binds to a donor head that contains streptavidin. Thus phosphorylated substrate is bound by antibody and streptavidin, bringing the donor and acceptor heads into close proximity when kinase is not inhibited. The donor produces singlet oxygen which results in emission from the acceptor when they are in close proximity. Conversely, when kinase is inhibited, the donor and acceptor beads are not associated and the emission from the acceptor is reduced.
(§2) AlphaScreen assays were done using compounds dissolved in DMSO to a concentration of 20 mM. The compounds were diluted accordingly to the desired final concentrations in each sample well, using 1:3 serial dilution for a total of 8 concentration points. Plates were prepared such that each kinase reaction is 20 μl in 1× kinase buffer, 5% DMSO and 10 μM ATP. After incubation of the kinase reaction for 1 hour at room temperature, 5 μl of donor beads in stop buffer (50 mM EDTA in 1× kinase buffer) was added, the sample was mixed and incubated for 20 minutes at room temperature before adding 5 μl of acceptor beads in stop buffer. The samples were incubated for 60 minutes at room temperature and the signal per well was read on AlphaQuest reader.

Fms = biological target: T6, Fms (Homo sapiens, UniProt P07333); experiment: AlphaScreen kinase assay, Fms; conditions: read-out: IC50, activity toward kinase Fms
T6 construct: purchased Upstate Biotechnology
Excerpt: as §1, §2

FGFR1 = biological target: T7, FGFR1 (Homo sapiens, UniProt P11362, C488A/C584S); experiment: AlphaScreen kinase assay, FGFR1; conditions: read-out: IC50, activity toward kinase FGFR
T7 construct: P1351.pET N6 BI-PTP FGFR A458-E765-X C488A, C584S; made in house; host or cells: E. coli (PTP1B co-expressed)

c-Raf-1 = biological target: T8, c-Raf-1 (Homo sapiens, UniProt P04049); experiment: AlphaScreen kinase assay, c-Raf-1; conditions: read-out: IC50, activity toward kinase c-Raf-1
T8 construct: purchased Upstate Biotechnology

Flt1 = biological target: T9, Flt1 (Homo sapiens, UniProt P17948); experiment: AlphaScreen kinase assay, Flt1; conditions: read-out: IC50, activity toward kinase Flt1
T9 construct: P1826.pETN6 BI-PTP FLT1 M799-D1165-X WT; His6 (N); made in house; host or cells: E. coli (PTP1B co-expressed)
T9 sequence (P17948 with tags, fused parts or gaps): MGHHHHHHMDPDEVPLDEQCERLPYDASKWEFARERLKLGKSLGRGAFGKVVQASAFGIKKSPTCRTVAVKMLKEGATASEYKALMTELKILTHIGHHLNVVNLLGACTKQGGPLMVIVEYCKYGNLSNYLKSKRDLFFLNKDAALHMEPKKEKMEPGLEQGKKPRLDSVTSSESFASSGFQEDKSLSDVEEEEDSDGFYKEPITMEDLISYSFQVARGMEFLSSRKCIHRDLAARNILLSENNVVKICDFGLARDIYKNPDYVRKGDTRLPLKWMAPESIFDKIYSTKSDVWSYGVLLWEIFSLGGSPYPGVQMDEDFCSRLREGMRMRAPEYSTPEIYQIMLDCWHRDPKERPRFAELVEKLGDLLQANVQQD

Measured: IC50

T7 sequence (P11362 458-765 C488A/C584S): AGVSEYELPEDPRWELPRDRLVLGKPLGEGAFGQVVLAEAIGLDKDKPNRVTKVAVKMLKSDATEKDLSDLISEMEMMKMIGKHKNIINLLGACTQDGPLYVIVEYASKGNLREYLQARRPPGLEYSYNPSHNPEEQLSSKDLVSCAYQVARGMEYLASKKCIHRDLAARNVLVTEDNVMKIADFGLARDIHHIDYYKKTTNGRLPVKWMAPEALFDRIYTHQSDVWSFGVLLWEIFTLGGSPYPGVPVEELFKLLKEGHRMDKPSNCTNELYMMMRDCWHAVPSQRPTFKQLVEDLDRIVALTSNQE
T5 sequence (P10721 with tags, fused parts or gaps): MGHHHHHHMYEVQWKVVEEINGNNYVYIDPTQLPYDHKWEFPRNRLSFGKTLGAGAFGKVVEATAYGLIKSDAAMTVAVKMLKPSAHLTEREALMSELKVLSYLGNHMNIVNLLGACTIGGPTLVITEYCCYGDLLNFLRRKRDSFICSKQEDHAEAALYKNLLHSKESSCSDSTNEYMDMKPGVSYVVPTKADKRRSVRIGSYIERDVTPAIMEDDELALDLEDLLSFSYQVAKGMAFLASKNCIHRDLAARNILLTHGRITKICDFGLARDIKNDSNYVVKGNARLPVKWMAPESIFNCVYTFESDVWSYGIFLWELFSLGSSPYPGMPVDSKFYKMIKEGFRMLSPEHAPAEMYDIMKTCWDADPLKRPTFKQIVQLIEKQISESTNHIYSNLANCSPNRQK
T8 sequence (P04049 whole entry): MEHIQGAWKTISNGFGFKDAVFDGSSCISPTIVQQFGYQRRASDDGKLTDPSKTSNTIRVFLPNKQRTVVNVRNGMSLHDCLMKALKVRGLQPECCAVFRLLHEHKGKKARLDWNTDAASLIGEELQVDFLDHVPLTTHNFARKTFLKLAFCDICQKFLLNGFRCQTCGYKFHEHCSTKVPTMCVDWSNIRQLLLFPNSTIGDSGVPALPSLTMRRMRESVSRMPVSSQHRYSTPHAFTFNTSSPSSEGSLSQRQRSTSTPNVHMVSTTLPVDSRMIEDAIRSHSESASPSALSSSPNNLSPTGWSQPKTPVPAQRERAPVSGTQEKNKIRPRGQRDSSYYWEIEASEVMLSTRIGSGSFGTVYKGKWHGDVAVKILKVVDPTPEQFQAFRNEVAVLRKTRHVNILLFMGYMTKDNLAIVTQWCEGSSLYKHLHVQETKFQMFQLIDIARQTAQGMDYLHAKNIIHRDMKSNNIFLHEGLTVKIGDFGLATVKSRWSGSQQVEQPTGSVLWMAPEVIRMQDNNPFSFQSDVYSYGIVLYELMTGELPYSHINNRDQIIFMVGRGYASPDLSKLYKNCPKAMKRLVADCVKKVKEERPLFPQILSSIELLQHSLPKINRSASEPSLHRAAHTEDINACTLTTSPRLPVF
T2 sequence (P15056 with tags, fused parts or gaps V600E): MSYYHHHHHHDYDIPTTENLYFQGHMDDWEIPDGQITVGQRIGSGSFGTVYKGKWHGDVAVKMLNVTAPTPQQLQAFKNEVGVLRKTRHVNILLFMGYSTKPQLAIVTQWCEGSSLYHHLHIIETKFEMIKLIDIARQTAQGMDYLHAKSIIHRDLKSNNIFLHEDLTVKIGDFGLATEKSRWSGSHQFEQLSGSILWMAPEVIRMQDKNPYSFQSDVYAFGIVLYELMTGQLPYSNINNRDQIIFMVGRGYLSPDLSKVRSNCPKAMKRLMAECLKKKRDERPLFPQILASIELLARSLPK
MAP4K4, sequence (O95819 whole entry): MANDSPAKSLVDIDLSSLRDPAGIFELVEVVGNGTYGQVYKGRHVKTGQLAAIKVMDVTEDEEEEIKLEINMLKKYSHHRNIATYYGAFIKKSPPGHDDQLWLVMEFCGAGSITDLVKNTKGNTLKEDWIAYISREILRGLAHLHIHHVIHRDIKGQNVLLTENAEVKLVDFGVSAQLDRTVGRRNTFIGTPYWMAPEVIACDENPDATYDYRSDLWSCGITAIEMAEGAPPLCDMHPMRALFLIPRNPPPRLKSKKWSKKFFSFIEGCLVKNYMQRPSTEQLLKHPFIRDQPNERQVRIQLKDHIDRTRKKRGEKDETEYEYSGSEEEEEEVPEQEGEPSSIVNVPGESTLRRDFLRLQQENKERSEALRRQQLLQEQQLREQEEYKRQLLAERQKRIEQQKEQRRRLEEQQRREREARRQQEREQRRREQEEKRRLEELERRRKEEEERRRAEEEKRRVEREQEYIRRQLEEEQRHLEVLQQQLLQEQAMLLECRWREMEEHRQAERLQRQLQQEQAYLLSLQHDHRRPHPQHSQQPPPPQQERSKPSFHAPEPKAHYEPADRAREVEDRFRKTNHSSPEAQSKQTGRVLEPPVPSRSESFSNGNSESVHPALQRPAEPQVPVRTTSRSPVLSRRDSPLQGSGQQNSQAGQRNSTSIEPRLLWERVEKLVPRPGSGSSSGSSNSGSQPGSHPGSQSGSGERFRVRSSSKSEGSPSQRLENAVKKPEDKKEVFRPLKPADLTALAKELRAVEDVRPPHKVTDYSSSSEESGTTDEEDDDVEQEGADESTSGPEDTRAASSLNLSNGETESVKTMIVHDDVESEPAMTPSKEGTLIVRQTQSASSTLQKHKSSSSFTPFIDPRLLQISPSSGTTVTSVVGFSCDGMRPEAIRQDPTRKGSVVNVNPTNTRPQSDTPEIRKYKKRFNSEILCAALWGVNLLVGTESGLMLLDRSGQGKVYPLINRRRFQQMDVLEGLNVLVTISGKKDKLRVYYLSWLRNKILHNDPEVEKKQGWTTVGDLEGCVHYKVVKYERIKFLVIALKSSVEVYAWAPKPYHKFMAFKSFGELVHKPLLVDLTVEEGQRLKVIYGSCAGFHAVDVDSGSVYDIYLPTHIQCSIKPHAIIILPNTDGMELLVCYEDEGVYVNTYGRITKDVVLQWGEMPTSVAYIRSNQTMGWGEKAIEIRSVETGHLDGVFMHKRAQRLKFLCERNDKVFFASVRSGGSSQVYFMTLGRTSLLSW
T1 sequence (P15056 whole entry): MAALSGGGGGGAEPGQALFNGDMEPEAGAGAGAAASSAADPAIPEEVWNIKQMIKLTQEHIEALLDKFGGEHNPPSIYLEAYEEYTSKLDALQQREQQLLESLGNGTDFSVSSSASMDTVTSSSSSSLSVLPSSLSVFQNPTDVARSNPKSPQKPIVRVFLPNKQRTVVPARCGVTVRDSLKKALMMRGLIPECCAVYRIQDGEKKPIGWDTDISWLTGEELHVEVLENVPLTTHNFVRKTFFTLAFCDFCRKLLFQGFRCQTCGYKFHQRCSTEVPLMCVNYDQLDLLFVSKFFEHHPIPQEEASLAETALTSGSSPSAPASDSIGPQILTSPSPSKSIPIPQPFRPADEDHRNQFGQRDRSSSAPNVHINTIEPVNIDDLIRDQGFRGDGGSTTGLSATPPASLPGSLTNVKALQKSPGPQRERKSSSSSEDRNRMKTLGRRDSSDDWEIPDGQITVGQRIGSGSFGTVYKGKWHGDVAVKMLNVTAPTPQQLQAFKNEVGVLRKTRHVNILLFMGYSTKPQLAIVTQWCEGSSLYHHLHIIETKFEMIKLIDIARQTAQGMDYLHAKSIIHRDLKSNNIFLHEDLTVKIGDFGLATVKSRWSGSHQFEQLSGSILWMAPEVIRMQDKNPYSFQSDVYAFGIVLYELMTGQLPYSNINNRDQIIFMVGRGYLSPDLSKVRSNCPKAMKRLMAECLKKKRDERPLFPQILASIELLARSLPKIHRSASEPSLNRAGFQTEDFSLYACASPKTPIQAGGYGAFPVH
T4 sequence (P12931 with tags, fused parts or gaps): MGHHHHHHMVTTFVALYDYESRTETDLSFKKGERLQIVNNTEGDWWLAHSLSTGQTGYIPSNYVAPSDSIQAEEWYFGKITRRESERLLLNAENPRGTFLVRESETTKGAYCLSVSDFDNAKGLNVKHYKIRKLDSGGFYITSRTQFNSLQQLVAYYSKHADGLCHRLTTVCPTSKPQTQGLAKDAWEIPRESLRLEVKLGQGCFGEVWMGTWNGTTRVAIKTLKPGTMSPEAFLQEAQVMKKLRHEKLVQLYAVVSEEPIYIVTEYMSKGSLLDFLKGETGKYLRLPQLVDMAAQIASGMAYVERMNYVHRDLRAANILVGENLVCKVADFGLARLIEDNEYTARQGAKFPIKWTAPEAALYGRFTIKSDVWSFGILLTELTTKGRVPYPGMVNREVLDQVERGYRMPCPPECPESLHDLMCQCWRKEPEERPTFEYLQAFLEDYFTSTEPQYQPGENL
T3 sequence (P45983 whole entry): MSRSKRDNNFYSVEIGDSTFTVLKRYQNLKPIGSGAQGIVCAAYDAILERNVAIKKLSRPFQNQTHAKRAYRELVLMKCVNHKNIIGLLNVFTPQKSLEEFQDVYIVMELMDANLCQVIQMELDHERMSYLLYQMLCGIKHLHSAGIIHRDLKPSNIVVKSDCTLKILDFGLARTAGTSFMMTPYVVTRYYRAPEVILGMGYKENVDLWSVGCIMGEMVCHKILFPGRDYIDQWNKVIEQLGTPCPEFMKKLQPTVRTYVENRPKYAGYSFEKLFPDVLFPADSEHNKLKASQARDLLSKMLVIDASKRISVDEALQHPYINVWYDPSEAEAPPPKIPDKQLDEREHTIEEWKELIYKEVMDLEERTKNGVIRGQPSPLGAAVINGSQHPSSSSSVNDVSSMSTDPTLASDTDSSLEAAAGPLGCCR

CCCS(=O)(=O)Nc1ccc(F)c(C(=O)c2c[nH]c3ncc(N4CCOCC4)cc23)c1F [Compound P-0853, Propane-1-sulfonic acid [2,4-difluoro-3-(5-morpholin-4-yl-1H-pyrrolo[2,3-b]pyridine-3-carbonyl)-phenyl]-amide]
not listed: Flt1
≤ 10 µM: all other assays above

CCCS(=O)(=O)Nc1ccc(Cl)c(C(=O)c2c[nH]c3ncccc23)c1F [Compound P-0904, Propane-1-sulfonic acid [4-chloro-2-fluoro-3-(1H-pyrrolo[2,3-b]pyridine-3-carbonyl)-phenyl]-amide]
≤ 10 µM: B-Raf | B-Raf V600E | MAP4K4 | FGFR1 | c-Raf-1

COc1cc(Nc2ccnc3[nH]ccc23)cc(OC)c1OC [Compound P-0909]
≤ 10 µM: B-Raf | MAP4K4 | c-Raf-1

O=C(c1c(F)ccc(NS(=O)(=O)c2ccc(C(F)(F)F)cc2)c1F)c1c[nH]c2ncccc12 [Compound P-0931, N-[2,4-Difluoro-3-(1H-pyrrolo[2,3-b]pyridine-3-carbonyl)-phenyl]-4-trifluoromethyl-benzenesulfonamide]
≤ 10 µM: B-Raf | B-Raf V600E | MAP4K4 | Kit | Fms | c-Raf-1

O=C(c1c(F)ccc(NS(=O)(=O)c2ccc(Cl)cc2)c1F)c1c[nH]c2ncccc12 [Compound P-0937, 4-Chloro-N-[2,4-difluoro-3-(1H-pyrrolo[2,3-b]pyridine-3-carbonyl)-phenyl]-benzenesulfonamide]
≤ 10 µM: B-Raf | B-Raf V600E | MAP4K4 | Kit | FGFR1 | c-Raf-1

COc1cccc(S(=O)(=O)Nc2ccc(F)c(C(=O)c3c[nH]c4ncccc34)c2F)c1 [Compound P-0971, N-[2,4-difluoro-3-(1H-pyrrolo[2,3-b]pyridine-3-carbonyl)phenyl]-3-methoxy-benzenesulfonamide]
≤ 10 µM: B-Raf V600E | MAP4K4 | c-Raf-1

O=C(O)c1ccc(F)c(C(=O)c2c[nH]c3ncc(-c4cccnc4)cc23)c1F [Compound P-1017]
≤ 10 µM: MAP4K4 | FGFR1 | c-Raf-1

CCCS(=O)(=O)Nc1cccc(C(=O)c2c[nH]c3ncccc23)c1F [Compound P-1056, propane-1-sulfonic acid [2-fluoro-3-(1H-1-pyrrolo[2,3-b]pyridine-3-carbonyl)-phenyl]-amide]
≤ 10 µM: B-Raf | B-Raf V600E | MAP4K4 | c-Raf-1

O=C(O)/C=C/c1cccc(-c2cnc3[nH]cc(C(=O)c4cccc(OC(F)(F)F)c4)c3c2)c1 [Compound P-1417, (E)-3-{3-[3-(3-Trifluoromethoxy-benzoyl)-1H-pyrrolo[2,3-b]pyridin-5-yl]-phenyl}-acrylic acid]
≤ 10 µM: B-Raf V600E | Src | Flt1 | MAP4K4 | Kit
